Reference: ChEMBL document CHEMBL3046745, “Sensitivity of Cucumber Powdery Mildew Fungus (Sphaerotheca fuliginea) to Several Fungicides” (J Pestic Sci, 1991)

Experiments:
Podosphaera fuliginea [1] = assay: Antifungal activity against Podosphaera fuliginea isolate N-1 in cucumber plants by leaf disc method; type: functional, organism-based
Podosphaera fuliginea [2] = assay: Antifungal activity against Podosphaera fuliginea isolate K-7 in cucumber plants by leaf disc method; type: functional, organism-based
Podosphaera fuliginea [3] = assay: Antifungal activity against Podosphaera fuliginea isolate N-1 in cucumber plants assessed as percentage of infected leaf area at 125 ppm treated 3 times at 7-day interval by foliar spray test; type: functional
Podosphaera fuliginea [4] = assay: Resistant ratio, ratio of EC50 for Podosphaera fuliginea isolate N-2 to EC50 for Podosphaera fuliginea isolate K-7; type: functional
Podosphaera fuliginea [5] = assay: Antifungal activity against Podosphaera fuliginea isolate S-2 in cucumber plants by leaf disc method; type: functional, organism-based
Podosphaera fuliginea [6] = assay: Resistant ratio, ratio of EC50 for Podosphaera fuliginea isolate N-1 to EC50 for Podosphaera fuliginea isolate K-7; type: functional
Podosphaera fuliginea [7] = assay: Antifungal activity against Podosphaera fuliginea isolate K-7 in cucumber plants assessed as percentage of infected leaf area at 125 ppm treated 3 times at 7-day interval by foliar spray test; type: functional
Podosphaera fuliginea [8] = assay: Antifungal activity against Podosphaera fuliginea isolate S-2 in cucumber plants assessed as percentage of infected leaf area at 125 ppm treated 3 times at 7-day interval by foliar spray test; type: functional
Podosphaera fuliginea [9] = assay: Antifungal activity against Podosphaera fuliginea isolate N-2 in cucumber plants by leaf disc method; type: functional, organism-based
Podosphaera fuliginea [10] = assay: Resistant ratio, ratio of EC50 for Podosphaera fuliginea isolate S-2 to EC50 for Podosphaera fuliginea isolate K-7; type: functional
Podosphaera fuliginea [11] = assay: Antifungal activity against Podosphaera fuliginea isolate N-2 in cucumber plants assessed as percentage of infected leaf area at 125 ppm treated 3 times at 7-day interval by foliar spray test; type: functional
Podosphaera fuliginea [12] = assay: Antifungal activity against Podosphaera fuliginea isolate S-2 in cucumber plants assessed as percentage of infected leaf area at 62.5 ppm treated 3 times at 7-day interval by foliar spray test; type: functional
Podosphaera fuliginea [13] = assay: Antifungal activity against Podosphaera fuliginea isolate N-1 in cucumber plants assessed as percentage of infected leaf area at 62.5 ppm treated 3 times at 7-day interval by foliar spray test; type: functional
Podosphaera fuliginea [14] = assay: Antifungal activity against Podosphaera fuliginea isolate K-7 in cucumber plants assessed as percentage of infected leaf area at 62.5 ppm treated 3 times at 7-day interval by foliar spray test; type: functional
Podosphaera fuliginea [15] = assay: Antifungal activity against Podosphaera fuliginea isolate N-2 in cucumber plants assessed as percentage of infected leaf area at 62.5 ppm treated 3 times at 7-day interval by foliar spray test; type: functional
Podosphaera fuliginea [16] = assay: Antifungal activity against Podosphaera fuliginea isolate N-2 in cucumber plants assessed as percentage of infected leaf area at 466.7 ppm treated 3 times at 7-day interval by foliar spray test; type: functional
Podosphaera fuliginea [17] = assay: Antifungal activity against Podosphaera fuliginea isolate K-7 in cucumber plants assessed as percentage of infected leaf area at 466.7 ppm treated 3 times at 7-day interval by foliar spray test; type: functional
Podosphaera fuliginea [18] = assay: Antifungal activity against Podosphaera fuliginea isolate S-2 in cucumber plants assessed as percentage of infected leaf area at 466.7 ppm treated 3 times at 7-day interval by foliar spray test; type: functional
Podosphaera fuliginea [19] = assay: Antifungal activity against Podosphaera fuliginea isolate N-1 in cucumber plants assessed as percentage of infected leaf area at 466.7 ppm treated 3 times at 7-day interval by foliar spray test; type: functional
Podosphaera fuliginea [20] = assay: Antifungal activity against Podosphaera fuliginea isolate N-2 in cucumber plants assessed as percentage of infected leaf area at 25 ppm treated 3 times at 7-day interval by foliar spray test; type: functional
Podosphaera fuliginea [21] = assay: Antifungal activity against Podosphaera fuliginea isolate N-1 in cucumber plants assessed as percentage of infected leaf area at 25 ppm treated 3 times at 7-day interval by foliar spray test; type: functional
Podosphaera fuliginea [22] = assay: Antifungal activity against Podosphaera fuliginea isolate K-7 in cucumber plants assessed as percentage of infected leaf area at 25 ppm treated 3 times at 7-day interval by foliar spray test; type: functional
Podosphaera fuliginea [23] = assay: Antifungal activity against Podosphaera fuliginea isolate S-2 in cucumber plants assessed as percentage of infected leaf area at 25 ppm treated 3 times at 7-day interval by foliar spray test; type: functional

| Structure (SMILES) | EC50 (Podosphaera fuliginea [1]) | EC50 (Podosphaera fuliginea [2]) | Ratio EC50 (Podosphaera fuliginea [4]) | EC50 (Podosphaera fuliginea [5]) | Ratio EC50 (Podosphaera fuliginea [6]) | EC50 (Podosphaera fuliginea [9]) | Ratio EC50 (Podosphaera fuliginea [10]) | further results |
| --- | --- | --- | --- | --- | --- | --- | --- | --- |
| Cc1ccc2nc3sc(=O)sc3nc2c1 [CHINOMETHIONAT] | 4.83 ppm | 1.27 ppm | 2.6 | 4.95 ppm | 3.8 | 3.35 ppm | 3.9 | Activity (Podosphaera fuliginea [3]): 91.1%; Activity (Podosphaera fuliginea [7]): 96.5%; Activity (Podosphaera fuliginea [8]): 91.3%; Activity (Podosphaera fuliginea [11]): 94.9% |
| CCCCc1c(C)nc(N(C)C)nc1O [DIMETHIRIMOL] | 6.6 ppm | 2.95 ×10⁻² ppm | 218.6 | 4.64 ppm | 223.7 | 6.45 ppm | 157.3 | Activity (Podosphaera fuliginea [12]): 55.2%; Activity (Podosphaera fuliginea [13]): 49.4%; Activity (Podosphaera fuliginea [14]): 98.8%; Activity (Podosphaera fuliginea [15]): 47.4% |
| COC(=O)NC(=S)Nc1ccccc1NC(=S)NC(=O)OC [THIOPHANATE METHYL] | 680 ppm | 2.71 ×10⁻² ppm | 26531.4 | 479 ppm | 25092.3 | 719 ppm | 17675.3 | Activity (Podosphaera fuliginea [16]): 11.9%; Activity (Podosphaera fuliginea [17]): 97.8%; Activity (Podosphaera fuliginea [18]): 0%; Activity (Podosphaera fuliginea [19]): 5.1% |
| CC(C)(C)C(=O)C(Oc1ccc(Cl)cc1)n1cncn1 (centres undefined) [TRIADIMEFON] | 9.72 ×10⁻¹ ppm | 1.03 ×10⁻² ppm | 553.4 | 1.82 ×10⁻² ppm | 94.4 | 5.7 ppm | 1.8 | Activity (Podosphaera fuliginea [20]): 45.8%; Activity (Podosphaera fuliginea [21]): 76%; Activity (Podosphaera fuliginea [22]): 98.8%; Activity (Podosphaera fuliginea [23]): 100% |
